Data on 23 molecules can be found in patent US8933099B2, “Monocyclic pyridine derivative” (Eisai R&D Management Co., Ltd., priority 2013, dated 2015).

Test [1] has as its system human stomach cancer cell line SNU-16 xenograft. Briefly: Antitumor effect in SNU-16 subcutaneous xenograft model in mice. The format is in vivo. Particulars: oral, once a day for 11 days, tumor volume last day. The source says: Human stomach cancer cell line SNU-16, which had been cultured in an RPMI-1640 medium containing 10% FBS, and penicillin and streptomycin, were adjusted to a concentration of 1×10^8 cells/mL with Hanks' Balanced Salt Solution (GIBCO #24020) to prepare a cell suspension, and the suspension was mixed with […] (BD Biosciences, Cat#354234) in a ratio of 1:1 to prepare a cell suspension in a concentration of 5×10^7 cells/ml. The cell suspension was inoculated in a volume of 100 ut into a subcutaneous part of a right flank of nude mice, 6 to 7 weeks of ages (BALB/cAiel-nu/nu, female, Clea Japan Inc.). Seven days after cell inoculation, the shortest diameter and the longest diameter of a tumor in each mouse were measured by using an electronic digital caliper (Digimatie™ caliper, Mitutoyo Corporation), so as to calculate the volume of the tumor in accordance with the following calculation formula: Tumor volume(mm^3)Longest diameter(mm)×Shortest diameter(mm)×Shortest diameter(mm)/2
On the basis of the volumes of tumors obtained on the first day of administration, the nude mice were grouped such that averages of the tumor volumes were substantially equal among the groups. Each test substance was dissolved in DMSO, Tween 80 was added thereto to prepare a solution in a 10-fold concentration and the thus prepared solution was stored at the freezer before use. Immediately before the administration, the stock solution was diluted with a 5% glucose solution to obtain a final administration solution (in which a ratio in % among DMSO, Tween 80 and the 5% glucose solution was 3.5:6.5:90). Each evaluation sample was orally administered to test substance administration group at a volume of 0.4 mL per 20 g of body weight once a day continuously for 11 days, and in a control group, an administration solvent was orally administered under the same conditions. Incidentally, the experiment was conducted on groups each consisting of 5 mice.
With respect to each of the control group and test substance administration group, a ratio of the weight measured on the final day to the weight measured on the first day (relative body weight: RBW) was calculated. If a ratio of the RBW of the test substance administration group/the RBW of the control group is 0.9 or mom, the corresponding test substance administration group was defined as a well-tolerated. In the test substance administration group thus defined as well-tolerated, a ratio of the tumor volume of the test substance-dosing group to the tumor volume of the control group obtained on the last day (TIC) (%) was calculated, and shown in Table 21.

The test system of test [2] is human stomach cancer cell line SNU-16 (FGFR2 gene amplification). Briefly: SNU-16 growth inhibition assay. The format is cell-based. As to the method:
In this assay, the growth inhibitory activity of a test substance in a human stomach cancer cell line harboring FGFR2 gene amplification is measured.
Then, 10 μL of Cell Counting Kit-8 (Dojindo Laboratories, CK04) was added to each well, and the resultant was incubated for 1 to 2 hours in a 5% CO2 incubator (37° C.) to cause a color reaction. The absorbance value was measured with ENVISION™ (PerkinElmer Co., Ltd.) at 450 nm.

Test [3] concerns normal human umbilical vein endothelial cells (HUVEC). The experiment in a line: HUVEC growth inhibition assay (VEGF-induced). It counts as cell-based. As to the method:
The absorbance value was measured with ENVISION™ (PerkinElmer Co., Ltd.) at 450 nm. The absorbance values of the wells without adding the test substance but with VEGF addition was defined as 100% and the absorbance values of the wells with neither the test substance nor VEGF addition was defined as 0%.

Where [4] appears, read: Homo sapiens, SNU-16, 72 h, read-out: SNU-16 (IC50 (nM)), cell growth, 3 days, Cell Counting Kit-8.
Setting [5] is: Homo sapiens, HUVEC, 72 h, read-out: HUVEC (IC50 (nM)), growth in the presence of VEGF 10 ng/mL, 3 days.

Read-outs that look alike come from different tables or passages of the source.

In the case of `CNC(=O)n1ccc2cc(Oc3ccnc(NC(=O)c4ccc(C5CCN(CCO)CC5)cc4)c3)c(OC)cc21` [Example 3, 5-((2-(4-(1-(2-Hydroxyethyl)piperidin-4-yl)benzamide)pyridin-4-yl)oxy)-6-methoxy-N-methyl-1H-indole-1-carboxamide], the “T/C (%)” value in test [1] (6.25 mg/kg) came out at 45%; in test [1] (12.5 mg/kg), 27%; in test [1] (25 mg/kg) it was 19%.
The like results for `CNC(=O)n1ccc2cc(Oc3ccnc(NC(=O)c4ccc(C5CCN(C[C@H](C)O)CC5)cc4)c3)c(OC)cc21` [Example 4, (S)-5-((2-(4-(1-(2-Hydroxypropyl)piperidin-4-yl)benzamide)pyridin-4-yl)oxy)-6-methoxy-N-methyl-1H-indole-1-carboxamide] were, in that order, 40%, 27% and 15%.
Turning to `CNC(=O)n1ccc2cc(Oc3ccnc(NC(=O)c4ccc(CN5CCC(O)CC5)cc4)c3)c(OC)cc21` [Example 9, 5-((2-(4-((4-Hydroxypiperidin-1-yl)methyl)benzamide)pyridin-4-yl)oxy)-6-methoxy-N-methyl-1H-indole-1-carboxamide], the “T/C (%)” value in test [1] (25 mg/kg) is 55%; in test [1] (50 mg/kg), 39%; in test [1] (100 mg/kg), 30%.
On to `CCOCCOc1cc2c(ccn2C(=O)NC)cc1Oc1ccnc(NC(=O)c2ccc(C3CCN(CCO)CC3)cc2)c1` [Example 25, 6-(2-Ethoxyethoxy)-5-((2-(4-(1-(2-hydroxyethyl)piperidin-4-yl)benzamide)pyridin-4-yl)oxy)-N-methyl-1H-indole-1-carboxamide], for which the IC50 in test [2] (setting [4]) was 3.8 nM; in test [3] (setting [5]), 191 nM. For the same molecule, the “T/C (%)” value is on record as 31% in test [1] (6.25 mg/kg), 23% in test [1] (12.5 mg/kg), 14% in test [1] (25 mg/kg) and 12% in test [1] (50 mg/kg).
Consider `CCOCCOc1cc2c(ccn2C(=O)NC)cc1Oc1ccnc(NC(=O)c2ccc(C3CN(CC)C3)cc2)c1` [Example 26, 6-(2-Ethoxyethoxy)-5-((2-(4-(1-ethylazetidin-3-yl)benzamide)pyridin-4-yl)oxy)-N-methyl-1H-indole-1-carboxamide], for which the IC50 was 5.6 nM in test [2] (setting [4]) and 258 nM in test [3] (setting [5]). Besides, the “T/C (%)” value in test [1] (6.25 mg/kg) came to 45%; in test [1] (12.5 mg/kg) it was 36%; in test [1] (25 mg/kg) it was 22%; in test [1] (50 mg/kg), 27%.
As to `CCOCCOc1cc2c(ccn2C(=O)NC)cc1Oc1ccnc(NC(=O)c2ccc(CN3CCC(O)CC3)s2)c1` [Example 101], the IC50 in test [2] (setting [4]) came to 6.8 nM; in test [3] (setting [5]), 182 nM.
With `CCOCCOc1cc2c(ccn2C(=O)NC)cc1Oc1ccnc(NC(=O)c2ccc(C3CN(C)C3)cc2)c1` [Example 102], the IC50 is 3.7 nM in test [2] (read-out: SNU-16 (IC50 (nM)), cell growth, 3 days, Cell Counting Kit-8) and 226 nM in test [3] (read-out: HUVEC (IC50 (nM)), growth in the presence of VEGF 10 ng/mL, 3 days).
Consider `CCOCCOc1cc2c(ccn2C(=O)NC)cc1Oc1ccnc(NC(=O)c2ccc(C3CN(C(C)C)C3)cc2)c1` [Example 103], for which the IC50 in test [2] (setting [4]) is 5.4 nM; in test [3] (setting [5]) it was 296 nM.
The like results for `CCOCCOc1cc2c(ccn2C(=O)NC)cc1Oc1ccnc(NC(=O)c2ccc(CN3CCC[C@@H]3CO)cc2)c1` [Example 104] were, in that order, 13.7 nM and 600 nM.
Consider `CCOCCOc1cc2c(ccn2C(=O)NC)cc1Oc1ccnc(NC(=O)c2ccc(CN3CC[C@H](O)C3)cc2)c1` [Example 105], for which the IC50 in test [2] (setting [4]) stood at 7.8 nM; in test [3] (setting [5]) it was 687 nM.
The like results for `CCOCCOc1cc2c(ccn2C(=O)NC)cc1Oc1ccnc(NC(=O)c2ccc(CN3CCC(F)CC3)cc2)c1` [Example 107] were, in that order, 22 nM and 907 nM.
On to `CCOCCOc1cc2c(ccn2C(=O)NC)cc1Oc1ccnc(NC(=O)c2ccc(CN3CCN(CC)CC3)cc2)c1` [Example 108], for which the IC50 in test [2] (setting [4]) worked out at 14.7 nM; in test [3] (setting [5]), 363 nM.
The corresponding values for `CCOCCOc1cc2c(ccn2C(=O)NC)cc1Oc1ccnc(NC(=O)c2ccc(C3CCN(C[C@@H](C)O)CC3)cc2)c1` [Example 111] are 5.1 nM and 195 nM.
The like results for `CCOCCOc1cc2c(ccn2C(=O)NC)cc1Oc1ccnc(NC(=O)c2ccc(C3CCN(C[C@H](C)O)CC3)cc2)c1` [Example 112] were, in that order, 3.8 nM and 202 nM.
The like results for `CCOCCOc1cc2c(ccn2C(=O)NC)cc1Oc1ccnc(NC(=O)c2ccc(CN3CCC(O)CC3)cc2)c1` [Example 115] were, in that order, 11.4 nM and 616 nM.
As to `CNC(=O)n1ccc2cc(Oc3ccnc(NC(=O)c4ccc(CN5CCC[C@H]5CO)cc4)c3)c(OCCCOC)cc21` [Example 117], the figures for the IC50 in test [2] (setting [4]) and in test [3] (setting [5]) were 16.6 nM and 534 nM, respectively.
The corresponding values for `CNC(=O)n1ccc2cc(Oc3ccnc(NC(=O)c4ccc(C5CN(C[C@@H](C)O)C5)cc4)c3)c(OCCCOC)cc21` [Example 118] are 8.6 nM and 183 nM.
The corresponding values for `CNC(=O)n1ccc2cc(Oc3ccnc(NC(=O)c4ccc(C5CN(C[C@H](C)O)C5)cc4)c3)c(OCCCOC)cc21` [Example 119] are 11.9 nM and 242 nM.
The like results for `CNC(=O)n1ccc2cc(Oc3ccnc(NC(=O)c4ccc(CN5CC[C@@H](O)C5)cc4)c3)c(OCCCOC)cc21` [Example 121] were, in that order, 14.9 nM and 518 nM.
As to `CNC(=O)n1ccc2cc(Oc3ccnc(NC(=O)c4ccc(CN5CCC(O)CC5)cc4)c3)c(OCCCOC)cc21` [Example 122], the IC50 in test [2] (setting [4]) is 11.3 nM; in test [3] (setting [5]), 494 nM.
On to `CNC(=O)n1ccc2cc(Oc3ccnc(NC(=O)c4ccc(C5CCN(C[C@@H](C)O)CC5)cc4)c3)c(OCCCOC)cc21` [Example 125], for which the IC50 in test [2] (setting [4]) came out at 7.2 nM; in test [3] (setting [5]), 203 nM.
As for `CNC(=O)n1ccc2cc(Oc3ccnc(NC(=O)c4ccc(C5CCN(C[C@H](C)O)CC5)cc4)c3)c(OCCCOC)cc21` [Example 126], the results for the IC50 in test [2] (setting [4]) and in test [3] (setting [5]) were 6.6 nM and 197 nM, respectively.
In the case of `CNC(=O)n1ccc2cc(Oc3ccnc(NC(=O)c4ccc(C5CCN(C)CC5)cc4)c3)c(OCCCOC)cc21` [Example 130], the IC50 in test [2] (setting [4]) is 6.8 nM; in test [3] (setting [5]) it was 254 nM.
